Patent US20100267561A1, “HERBICIDAL PYRIDAZINONE DERIVATIVES” (priority 2007, published 2010)

Assays:
Experiment in all cases: Test B pre-/postemergence plant response
Assay type in all cases: in vivo
[1] = system: kochia (Kochia scoparia); settings: for Plant response rating, Kochia: Postemergence
Summary of the method: (§1)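 Seeds were sown and sprayed preemergence, while plants at 2 to 18 cm (1- to 4-leaf stage) got postemergence sprays. Compounds were formulated in a non-phytotoxic solvent mixture with surfactant. After 13 to 15 days in a greenhouse, injury was rated visually against untreated controls, 0 (no effect) to 100 (complete control).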

[2] = system: downy bromegrass (Bromus tectorum); settings: for Bromegrass, Downy plant response rating: 8 g ai/ha
Summary of the method: as §1

[3] = system: green foxtail (Setaria viridis); settings: for Foxtail, Green plant response rating: 8 g ai/ha
Summary of the method: as §1

[4] = system: bermudagrass (Cynodon dactylon); settings: for Bermudagrass plant response rating: 8 g ai/ha
Summary of the method: as §1

[5] = system: soybean (Glycine max); settings: for Soybean plant response rating: 8 g ai/ha
Summary of the method: as §1

[6] = system: velvetleaf (Abutilon theophrasti); settings: for Velvetleaf plant response rating: 8 g ai/ha
Summary of the method: as §1

[7] = system: Russian thistle (Salsola iberica); settings: Preemergence
Summary of the method: as §1

[8] = system: morningglory (Ipomoea coccinea); settings: for Morningglory plant response rating: 8 g ai/ha
Summary of the method: as §1

[9] = system: woolly cupgrass (Eriochloa villosa); settings: for Cupgrass, Woolly plant response rating: 8 g ai/ha
Summary of the method: as §1

[10] = system: eastern black (E.B.) nightshade (Solanum ptycanthum); settings: Preemergence
Summary of the method: as §1

[11] = system: surinam grass (Brachiaria decumbens); settings: for Surinam Grass plant response rating: 8 g ai/ha
Summary of the method: as §1

[12] = system: corn (Zea mays); settings: for Corn plant response rating: 8 g ai/ha
Summary of the method: as §1

[13] = system: Italian ryegrass (Lolium multiflorum); settings: for Ryegrass, Italian plant response rating: 8 g ai/ha
Summary of the method: as §1

[14] = system: pigweed (Amaranthus retroflexus); settings: for Pigweed plant response rating: 8 g ai/ha
Summary of the method: as §1

[15] = Postemergence, 16 g ai/ha, scale 0 to 100
[16] = Postemergence, 31 g ai/ha, scale 0 to 100, 0 no effect, 100 complete control
[17] = Postemergence, 62 g ai/ha, scale 0 to 100, 0 no effect, 100 complete control
[18] = Preemergence, 16 g ai/ha, scale 0 to 100 (0 no effect, 100 complete control)
[19] = Preemergence, 31 g ai/ha, 0 to 100 scale, 0 no effect, 100 complete control
[20] = Preemergence, 62 g ai/ha, scale 0 to 100
[21] = 16 g ai/ha, scale 0 to 100 (0 no effect, 100 complete control)

Cc1cc(-c2ccc(Cl)cc2)nn1-c1c(OS(C)(=O)=O)cnn(C)c1=O [Compound 36]
Kochia plant response rating ([1]; 8 g ai/ha, postemergence, 0-100 scale): 0 | Plant response rating, Kochia ([1]; 16 g ai/ha, scale 0 to 100): 0 | Plant response rating, Kochia ([1]; 31 g ai/ha, scale 0 to 100, 0 no effect, 100 complete control): 0 | Plant response rating, Kochia ([1]; 62 g ai/ha, scale 0 to 100, 0 no effect, 100 complete control): 0 | Bromegrass, Downy plant response rating ([2]; postemergence, 0-100 scale): 0 | Plant response rating, Bromegrass, Downy [2, 15]: 5 | Plant response rating, Bromegrass, Downy [2, 16]: 40 | Plant response rating, Bromegrass, Downy [2, 17]: 50 | Plant response rating, Bromegrass, Downy [2, 18]: 50 | Plant response rating, Bromegrass, Downy [2, 19]: 50 | Plant response rating, Bromegrass, Downy [2, 20]: 90 | Bromegrass, Downy plant response rating ([2]; Preemergence, scale 0 to 100): 0 | Foxtail, Green plant response rating ([3]; postemergence, 0-100 scale): 0 | Plant response rating, Foxtail, Green [3, 15]: 50 | Plant response rating, Foxtail, Green [3, 16]: 60 | Plant response rating, Foxtail, Green [3, 17]: 70 | Plant response rating, Foxtail, Green [3, 18]: 100 | Plant response rating, Foxtail, Green [3, 19]: 100 | Plant response rating, Foxtail, Green [3, 20]: 100 | Foxtail, Green plant response rating ([3]; Preemergence, scale 0 to 100): 50 | Bermudagrass plant response rating ([4]; postemergence, 0-100 scale): 40 | Plant response rating, Bermudagrass [4, 15]: 80 | Plant response rating, Bermudagrass [4, 16]: 100 | Plant response rating, Bermudagrass [4, 17]: 100 | Bermudagrass plant response rating ([4]; Preemergence, scale 0 to 100 (0 no effect, 100 complete control)): 98 | Plant response rating, Bermudagrass [4, 18]: 100 | Plant response rating, Bermudagrass [4, 19]: 100 | Plant response rating, Bermudagrass [4, 20]: 100 | Soybean plant response rating ([5]; postemergence, 0-100 scale): 0 | Plant response rating, Soybean [5, 15]: 0 | Plant response rating, Soybean [5, 17]: 0 | Plant response rating, Soybean [5, 18]: 0 | Plant response rating, Soybean [5, 19]: 0 | Plant response rating, Soybean [5, 20]: 0 | Soybean plant response rating ([5]; Preemergence, scale 0 to 100): 0 | Velvetleaf plant response rating ([6]; postemergence, 0-100 scale): 0 | Plant response rating, Velvetleaf [6, 15]: 0 | Plant response rating, Velvetleaf [6, 17]: 0 | Plant response rating, Velvetleaf [6, 18]: 0 | Plant response rating, Velvetleaf [6, 19]: 0 | Plant response rating, Velvetleaf [6, 20]: 0 | Velvetleaf plant response rating ([6]; Preemergence, scale 0 to 100): 0 | Plant response rating, Russian Thistle [7, 21]: 0 | Plant response rating, Russian Thistle ([7]; 62 g ai/ha, scale 0 to 100): 80 | Russian Thistle plant response rating ([7]; 8 g ai/ha, scale 0 to 100): 0 | Morningglory plant response rating ([8]; postemergence, 0-100 scale): 0 | Plant response rating, Morningglory [8, 15]: 0 | Plant response rating, Morningglory [8, 16]: 0 | Plant response rating, Morningglory [8, 17]: 0 | Plant response rating, Morningglory [8, 18]: 0 | Plant response rating, Morningglory [8, 19]: 0 | Plant response rating, Morningglory [8, 20]: 0 | Morningglory plant response rating ([8]; Preemergence, scale 0 to 100): 0 | Cupgrass, Woolly plant response rating ([9]; postemergence, 0-100 scale): 85 | Plant response rating, Cupgrass, Woolly [9, 15]: 90 | Plant response rating, Cupgrass, Woolly [9, 16]: 95 | Plant response rating, Cupgrass, Woolly [9, 17]: 95 | Plant response rating, Cupgrass, Woolly [9, 18]: 85 | Plant response rating, Cupgrass, Woolly [9, 19]: 98 | Plant response rating, Cupgrass, Woolly [9, 20]: 100 | Cupgrass, Woolly plant response rating ([9]; Preemergence, scale 0 to 100): 85 | Plant response rating, Nightshade, E. B. [10, 21]: 0 | Plant response rating, Nightshade, E. B. ([10]; 31 g ai/ha, 0 to 100 scale, 0 no effect, 100 complete control): 0 | Plant response rating, Nightshade, E. B. ([10]; 62 g ai/ha, scale 0 to 100): 0 | Nightshade, E. B. plant response rating ([10]; 8 g ai/ha, scale 0 to 100): 0 | Surinam Grass plant response rating ([11]; postemergence, 0-100 scale): 70 | Plant response rating, Surinam Grass [11, 15]: 85 | Plant response rating, Surinam Grass [11, 17]: 100 | Plant response rating, Surinam Grass [11, 18]: 100 | Plant response rating, Surinam Grass [11, 19]: 100 | Plant response rating, Surinam Grass [11, 20]: 100 | Surinam Grass plant response rating ([11]; Preemergence, scale 0 to 100): 70 | Corn plant response rating ([12]; postemergence, 0-100 scale): 10 | Plant response rating, Corn [12, 15]: 15 | Plant response rating, Corn [12, 16]: 15 | Plant response rating, Corn [12, 17]: 40 | Plant response rating, Corn [12, 18]: 55 | Plant response rating, Corn [12, 19]: 70 | Plant response rating, Corn [12, 20]: 95 | Corn plant response rating ([12]; Preemergence, scale 0 to 100): 40 | Ryegrass, Italian plant response rating ([13]; postemergence, 0-100 scale): 10 | Plant response rating, Ryegrass, Italian [13, 15]: 30 | Plant response rating, Ryegrass, Italian [13, 16]: 65 | Plant response rating, Ryegrass, Italian [13, 17]: 95 | Plant response rating, Ryegrass, Italian [13, 18]: 98 | Plant response rating, Ryegrass, Italian [13, 19]: 100 | Plant response rating, Ryegrass, Italian [13, 20]: 100 | Ryegrass, Italian plant response rating ([13]; Preemergence, scale 0 to 100): 20 | Pigweed plant response rating ([14]; postemergence, 0-100 scale): 0 | Plant response rating, Pigweed [14, 15]: 0 | Plant response rating, Pigweed [14, 16]: 0 | Plant response rating, Pigweed [14, 17]: 0 | Plant response rating, Pigweed [14, 18]: 0 | Plant response rating, Pigweed [14, 19]: 0 | Plant response rating, Pigweed [14, 20]: 0 | Pigweed plant response rating ([14]; Preemergence, scale 0 to 100): 0
